Experiment in all cases: kinase profiling panel
Format in all cases: biochemical
Holding throughout (conditions): read-out: % Activity Remaining

One assay concerns the target CK1 gamma 2 (Homo sapiens, UniProt P78368). The source says:
(§1) Protein kinase profiling against a Dundee panel of 140 protein kinases was undertaken at the International Centre for Protein Kinase Profiling. The result for each kinase was presented as a mean kinase activity of the reaction taken in triplicate relative to a control sample treated with DMSO. Assay conditions and abbreviations are available at http://www.kinase-screen.mrc.ac.uk.

The next assay has as its target T1, DYRK3 (Homo sapiens, UniProt O43781).
T1 sequence (O43781 1-588): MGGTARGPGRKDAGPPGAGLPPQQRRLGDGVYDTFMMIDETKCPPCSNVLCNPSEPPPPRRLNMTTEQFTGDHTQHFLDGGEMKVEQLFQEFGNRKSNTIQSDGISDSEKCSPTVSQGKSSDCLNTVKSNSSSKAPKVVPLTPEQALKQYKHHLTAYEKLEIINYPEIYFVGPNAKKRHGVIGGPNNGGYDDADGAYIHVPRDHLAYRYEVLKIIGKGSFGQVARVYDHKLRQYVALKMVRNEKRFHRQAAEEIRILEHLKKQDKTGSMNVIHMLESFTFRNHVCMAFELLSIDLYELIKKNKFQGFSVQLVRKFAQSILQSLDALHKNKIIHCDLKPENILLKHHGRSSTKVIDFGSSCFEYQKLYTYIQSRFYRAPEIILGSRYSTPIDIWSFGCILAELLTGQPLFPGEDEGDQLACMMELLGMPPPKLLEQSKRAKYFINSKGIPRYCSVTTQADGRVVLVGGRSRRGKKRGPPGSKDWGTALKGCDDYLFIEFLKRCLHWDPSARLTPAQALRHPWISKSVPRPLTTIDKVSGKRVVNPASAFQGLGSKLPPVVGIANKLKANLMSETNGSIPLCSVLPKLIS
From the text: as §1

The target in the next assay is JAK2 (Homo sapiens, UniProt O60674).
From the text: as §1

For the next assay, the target named is JNK1 (Homo sapiens, UniProt P45983).
From the text: as §1

In a further assay the target is MNK2 (Homo sapiens, UniProt Q9HBH9).
From the text: as §1

In the next assay the target is T2, TAO1 (Homo sapiens, UniProt Q7L7X3).
T2 sequence (Q7L7X3 1-1001): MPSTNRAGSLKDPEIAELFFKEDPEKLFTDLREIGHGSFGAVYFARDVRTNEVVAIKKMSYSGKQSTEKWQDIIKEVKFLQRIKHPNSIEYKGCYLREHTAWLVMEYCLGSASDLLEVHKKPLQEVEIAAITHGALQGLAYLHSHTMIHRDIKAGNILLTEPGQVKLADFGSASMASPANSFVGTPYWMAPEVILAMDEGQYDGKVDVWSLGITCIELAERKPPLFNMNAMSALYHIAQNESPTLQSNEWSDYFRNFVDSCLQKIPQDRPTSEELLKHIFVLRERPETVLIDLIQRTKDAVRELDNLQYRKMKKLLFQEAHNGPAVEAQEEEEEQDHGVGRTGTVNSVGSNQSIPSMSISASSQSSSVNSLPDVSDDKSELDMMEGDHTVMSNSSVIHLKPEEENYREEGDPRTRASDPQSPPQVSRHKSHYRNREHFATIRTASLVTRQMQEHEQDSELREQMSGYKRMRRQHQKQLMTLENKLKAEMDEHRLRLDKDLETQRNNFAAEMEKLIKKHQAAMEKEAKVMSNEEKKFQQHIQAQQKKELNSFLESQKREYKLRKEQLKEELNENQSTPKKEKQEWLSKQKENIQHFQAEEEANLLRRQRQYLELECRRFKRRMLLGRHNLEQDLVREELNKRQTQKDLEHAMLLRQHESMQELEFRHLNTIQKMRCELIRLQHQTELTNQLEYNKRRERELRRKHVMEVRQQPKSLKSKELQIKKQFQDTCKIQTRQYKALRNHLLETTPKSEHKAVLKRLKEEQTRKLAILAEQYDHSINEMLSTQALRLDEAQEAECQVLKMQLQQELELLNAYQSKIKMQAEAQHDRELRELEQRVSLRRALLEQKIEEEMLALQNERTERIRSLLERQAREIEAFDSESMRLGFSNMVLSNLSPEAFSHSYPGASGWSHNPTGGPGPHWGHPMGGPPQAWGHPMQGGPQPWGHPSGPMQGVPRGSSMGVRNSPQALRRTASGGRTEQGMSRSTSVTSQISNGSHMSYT
From the text: as §1

A further assay has as its target T3, ULK1 (Homo sapiens, UniProt O75385).
T3 sequence (O75385 1-1050): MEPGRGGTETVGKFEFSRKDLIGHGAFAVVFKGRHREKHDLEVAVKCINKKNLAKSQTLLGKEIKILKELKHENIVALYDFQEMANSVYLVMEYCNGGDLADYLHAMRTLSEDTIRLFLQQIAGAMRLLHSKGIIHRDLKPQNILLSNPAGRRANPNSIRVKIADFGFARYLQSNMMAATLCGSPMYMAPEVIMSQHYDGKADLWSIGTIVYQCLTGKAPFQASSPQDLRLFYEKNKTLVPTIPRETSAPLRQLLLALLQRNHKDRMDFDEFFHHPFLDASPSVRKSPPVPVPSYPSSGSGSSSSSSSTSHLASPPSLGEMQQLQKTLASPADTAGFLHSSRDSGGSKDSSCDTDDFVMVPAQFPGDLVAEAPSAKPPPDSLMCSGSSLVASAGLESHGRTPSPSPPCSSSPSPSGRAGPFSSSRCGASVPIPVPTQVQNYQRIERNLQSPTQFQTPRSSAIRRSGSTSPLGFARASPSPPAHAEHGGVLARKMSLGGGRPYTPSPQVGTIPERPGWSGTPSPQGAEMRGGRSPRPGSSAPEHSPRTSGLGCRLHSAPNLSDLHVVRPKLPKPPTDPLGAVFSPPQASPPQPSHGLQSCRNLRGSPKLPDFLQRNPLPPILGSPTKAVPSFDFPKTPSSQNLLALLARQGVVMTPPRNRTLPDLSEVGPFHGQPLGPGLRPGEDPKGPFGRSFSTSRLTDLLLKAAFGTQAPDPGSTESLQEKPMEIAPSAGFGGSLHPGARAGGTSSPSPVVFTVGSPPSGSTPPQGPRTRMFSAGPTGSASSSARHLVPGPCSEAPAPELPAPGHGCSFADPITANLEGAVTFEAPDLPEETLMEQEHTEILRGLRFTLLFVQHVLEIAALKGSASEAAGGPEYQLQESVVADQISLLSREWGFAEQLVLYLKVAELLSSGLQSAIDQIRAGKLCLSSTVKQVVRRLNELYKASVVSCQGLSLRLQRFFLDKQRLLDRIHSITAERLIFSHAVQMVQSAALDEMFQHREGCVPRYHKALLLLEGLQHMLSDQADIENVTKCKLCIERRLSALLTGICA
From the text: as §1

Among the data in publication PMC6757289, “Design and Characterization of SGK3-PROTAC1, an Isoform Specific SGK3 Kinase PROTAC Degrader” (ACS Chemical Biology, 2019) are remaining activity values, retold here.

Read-outs that look alike come from different tables or passages of the source.

Sequence of JNK1 (P45983 whole entry): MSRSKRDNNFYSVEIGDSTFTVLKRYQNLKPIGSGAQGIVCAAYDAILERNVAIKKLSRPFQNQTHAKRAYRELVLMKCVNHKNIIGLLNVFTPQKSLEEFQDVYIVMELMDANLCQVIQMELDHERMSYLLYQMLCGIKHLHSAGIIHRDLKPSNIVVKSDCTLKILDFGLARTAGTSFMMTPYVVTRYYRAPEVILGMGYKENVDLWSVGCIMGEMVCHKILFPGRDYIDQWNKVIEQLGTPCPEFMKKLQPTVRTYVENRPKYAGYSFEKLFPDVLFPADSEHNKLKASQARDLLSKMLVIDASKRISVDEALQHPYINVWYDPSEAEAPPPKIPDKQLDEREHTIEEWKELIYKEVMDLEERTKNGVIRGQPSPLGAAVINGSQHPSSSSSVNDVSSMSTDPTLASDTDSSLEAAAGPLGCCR
Sequence of CK1 gamma 2 (P78368 whole entry): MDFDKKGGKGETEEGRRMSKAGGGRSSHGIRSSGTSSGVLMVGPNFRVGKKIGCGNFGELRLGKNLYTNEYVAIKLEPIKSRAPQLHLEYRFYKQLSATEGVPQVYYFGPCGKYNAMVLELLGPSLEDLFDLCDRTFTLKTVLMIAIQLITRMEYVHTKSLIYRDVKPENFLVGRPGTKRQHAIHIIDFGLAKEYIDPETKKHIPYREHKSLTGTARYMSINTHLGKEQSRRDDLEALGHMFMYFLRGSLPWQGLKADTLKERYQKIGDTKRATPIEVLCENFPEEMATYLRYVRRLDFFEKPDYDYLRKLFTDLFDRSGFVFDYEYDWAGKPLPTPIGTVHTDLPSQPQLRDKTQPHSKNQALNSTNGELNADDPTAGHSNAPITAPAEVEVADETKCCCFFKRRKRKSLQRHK
Sequence of JAK2 (O60674 whole entry): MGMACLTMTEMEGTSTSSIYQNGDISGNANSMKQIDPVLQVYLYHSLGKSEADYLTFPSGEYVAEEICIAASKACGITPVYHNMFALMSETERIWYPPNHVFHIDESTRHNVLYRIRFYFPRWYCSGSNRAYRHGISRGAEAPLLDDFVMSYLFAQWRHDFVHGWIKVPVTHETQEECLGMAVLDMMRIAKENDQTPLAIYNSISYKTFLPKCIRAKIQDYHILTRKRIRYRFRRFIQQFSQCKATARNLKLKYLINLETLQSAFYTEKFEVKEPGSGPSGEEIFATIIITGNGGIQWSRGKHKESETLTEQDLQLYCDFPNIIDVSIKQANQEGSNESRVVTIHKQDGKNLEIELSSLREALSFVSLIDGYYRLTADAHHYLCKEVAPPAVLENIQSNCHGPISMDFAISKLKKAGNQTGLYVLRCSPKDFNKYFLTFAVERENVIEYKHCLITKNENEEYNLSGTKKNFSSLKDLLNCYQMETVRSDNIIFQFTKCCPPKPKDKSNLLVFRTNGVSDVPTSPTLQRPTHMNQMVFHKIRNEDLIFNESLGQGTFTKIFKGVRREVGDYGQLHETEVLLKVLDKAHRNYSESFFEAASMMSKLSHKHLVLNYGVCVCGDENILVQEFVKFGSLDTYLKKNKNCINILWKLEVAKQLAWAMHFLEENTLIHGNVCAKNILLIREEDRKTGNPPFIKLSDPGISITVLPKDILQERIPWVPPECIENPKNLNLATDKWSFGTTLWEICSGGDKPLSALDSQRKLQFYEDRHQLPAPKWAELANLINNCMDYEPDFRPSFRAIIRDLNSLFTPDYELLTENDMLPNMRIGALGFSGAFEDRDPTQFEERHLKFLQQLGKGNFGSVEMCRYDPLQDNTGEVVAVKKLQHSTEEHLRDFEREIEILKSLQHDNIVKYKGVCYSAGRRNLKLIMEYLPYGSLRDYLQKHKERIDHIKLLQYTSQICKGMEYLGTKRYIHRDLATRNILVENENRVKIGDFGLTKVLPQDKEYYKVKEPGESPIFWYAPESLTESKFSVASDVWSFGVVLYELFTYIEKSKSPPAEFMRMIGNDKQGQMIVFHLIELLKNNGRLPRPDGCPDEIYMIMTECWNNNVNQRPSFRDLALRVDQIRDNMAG
Sequence of MNK2 (Q9HBH9 whole entry): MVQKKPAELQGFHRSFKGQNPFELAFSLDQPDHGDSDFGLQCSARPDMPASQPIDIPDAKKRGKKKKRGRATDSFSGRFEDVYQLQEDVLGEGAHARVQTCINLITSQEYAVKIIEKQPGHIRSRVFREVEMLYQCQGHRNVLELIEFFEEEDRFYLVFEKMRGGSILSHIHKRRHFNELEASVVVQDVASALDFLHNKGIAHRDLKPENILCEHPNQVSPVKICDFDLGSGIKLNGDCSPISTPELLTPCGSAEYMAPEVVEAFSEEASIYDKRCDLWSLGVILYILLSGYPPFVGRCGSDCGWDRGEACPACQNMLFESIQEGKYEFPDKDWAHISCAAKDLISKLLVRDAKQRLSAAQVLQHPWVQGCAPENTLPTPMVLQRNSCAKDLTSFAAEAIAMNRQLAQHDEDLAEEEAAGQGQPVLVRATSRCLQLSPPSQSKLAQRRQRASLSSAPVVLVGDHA

The remaining activity is the signal under treatment as a percentage of the control signal. Turning to `COc1ccc(Cl)c(S(=O)(=O)Nc2ccc(-c3nc(OC[C@H]4CNCCO4)c4c(C)n[nH]c4n3)cc2)c1` [290-R, reference compound], the remaining activity at 1 µM on CK1 gamma 2 was 112%; on DYRK3, 89%; on JAK2, 112%; at JNK1, 101%; on MNK2 it was 119%; on TAO1 it was 110%. The remaining activity at 1 µM at ULK1 was 78%.

Consider `Cc1ccc(F)c(S(=O)(=O)Nc2ccc(-c3nc(OC[C@H]4CNCCO4)c4cn[nH]c4n3)cc2)c1` [308-R, reference compound], for which the remaining activity at 1 µM at CK1 gamma 2 was determined as 67%; on DYRK3, 99%; at JAK2, 94%; at JNK1, 112%; on MNK2, 78%; on TAO1, 123%. Besides, the remaining activity at 1 µM at ULK1 amounted to 103%.

As to `Cc1ccc(F)c(S(=O)(=O)Nc2ccc(-c3nc(OC[C@H]4CN(CCCCCCOCCOCCOCC(=O)N[C@H](C(=O)N5C[C@H](O)C[C@H]5C(=O)NCc5ccc(-c6scnc6C)cc5)C(C)(C)C)CCO4)c4cn[nH]c4n3)cc2)c1` [SGK3-PROTAC1], the remaining activity at 1 µM is 101% at CK1 gamma 2 (1 µM); 102% on DYRK3 (1 µM); 95% on JAK2 (1 µM); 117% at JNK1 (1 µM); 122% on MNK2 (1 µM); 99% at TAO1 (1 µM). The remaining activity at 1 µM on ULK1 (1 µM) came to 116%.

With `Cc1ccc(F)c(S(=O)(=O)Nc2ccc(-c3nc(OC[C@H]4CN(CCCCCCOCCOCCOCC(=O)N[C@H](C(=O)N5C[C@@H](O)C[C@H]5C(=O)NCc5ccc(-c6scnc6C)cc5)C(C)(C)C)CCO4)c4cn[nH]c4n3)cc2)c1` [cisSGK3-PROTAC1], the remaining activity at 1 µM on CK1 gamma 2 (1 µM) worked out at 106%; at DYRK3 (1 µM) it was 104%; at JAK2 (1 µM), 94%; on JNK1 (1 µM) it was 119%; on MNK2 (1 µM) it was 122%; on TAO1 (1 µM), 105%. Further, the remaining activity at 1 µM on ULK1 (1 µM) is 112%.
